Drawing on US20040127440A1, “Methods and compositions for control of bone formation via modulation of neuropeptide Y activity” (BAYLOR COLLEGE OF MEDICINE, priority 2000, published 2004), this text covers bone mass and bone volume for one substance.

The test system of the assay is wt mice. Description: Intracerebroventricular infusion of NPY in wt mice, histological/histomorphometric analysis of vertebrae. The assay is classed as in vivo. Conditions: 4 month-old wt mice, icv infusion 0.5 μl/hour (75 ng/hr) for 28 days, compared with PBS-treated mice. The protocol: Bone specimens were processed as described (Ducy et al., 1999, Genes Dev 13, 1025-1036).
Histological analyses were performed on undecalcified sections stained with the von Kossa reagent and counterstained with Kernechtrot (Amling et al., 1999, Endocrinology, 140: 4982-4987). Double labeling technique with calcein has been described (Amling et al., 1999, Endocrinology, 140: 4982-4987). Static and dynamic histomorphometric analyses were performed according to standard protocols (Parfitt et al., 1987, J Bone Min Res, 2:595-610) using the Osteomeasure Analysis System (Osteometrics, Atlanta). Statistical differences between groups (n=4 to 6) were assessed by Student's test.
Animals were anesthetized with avertin and placed on a stereotaxic instrument (Stoelting). The calvaria was exposed and a 0.7 mm hole was drilled upon bregma. A 28-gauge cannula (Brain infusion kit II, Alza) was implanted into the third ventricle according to the following coordinates: midline, −0.3 AP, 3 mm ventral (0 point bregma). The cannula was secure to the skull with cyanoacrylate, and attached with Tygon tubing to an osmotic pump (Alza) placed in the dorsal subcutaneous space of the animal. The rate of delivery was 0.5 μl/hour (75 ng/hr) of NPY (Sigma) or PBS for 28 days.
The issue of whether NPY binding to its receptor would affect bone mass was examined in this example. […]

With neuropeptide Y [NPY], the bone mass entry is on record as “decrease” and the bone volume result is given as “decrease”.
